Earlier results in US20070071819A1, “MULTIPLE UNIT MODIFIED RELEASE COMPOSITIONS OF CARBAMAZEPINE AND PROCESS FOR THEIR PREPARATION” (priority 2005, published 2007).

Conditions: below 4 μg/ml ineffective; greater than 12 μg/ml increased chances of side-effects

NC(=O)N1c2ccccc2C=Cc2ccccc21 [carbamazepine, 5H-dibenz-[b,f]azepine-5-carboxamide]
therapeutic blood serum concentration range: 4 to 12 µg/mL
